# Data from patent publication US20030171375A1, “Method for treating ocular neovascular diseases” (priority 2002, published 2003).
# What was measured:
# [1] = test system: other RTKs including VEGF receptors; assay: standard tyrosine kinase assay, other RTKs; assay type: biochemical
# [2] = test system: PDGF receptors; assay: cellular autophosphorylation assay, Chinese hamster ovary cells transfected with RTK gene; assay type: cell-based; conditions: transfected CHO cells
# Procedure: (§1) In vivo activity requires drugs to enter cells and therefore agents are tested in cellular autophosphorylation assays, using Chinese hamster ovary cells transfected with one of several RTK genes.
# [3] = test system: VEGF receptors; assay: as above; conditions: transfected CHO cells
# Procedure: as §1
# [4] = target: T1, Flt-1 (Homo sapiens, UniProt P17948); assay: standard tyrosine kinase assay: phosphorylation of poly(GluTyr) by GST-fusion kinase domain; assay type: biochemical
# T1 construct: GST-fusion proteins of the kinase domains of several tyrosine kinase receptors; GST
# T1 sequence (P17948 827-1158 limits assumed): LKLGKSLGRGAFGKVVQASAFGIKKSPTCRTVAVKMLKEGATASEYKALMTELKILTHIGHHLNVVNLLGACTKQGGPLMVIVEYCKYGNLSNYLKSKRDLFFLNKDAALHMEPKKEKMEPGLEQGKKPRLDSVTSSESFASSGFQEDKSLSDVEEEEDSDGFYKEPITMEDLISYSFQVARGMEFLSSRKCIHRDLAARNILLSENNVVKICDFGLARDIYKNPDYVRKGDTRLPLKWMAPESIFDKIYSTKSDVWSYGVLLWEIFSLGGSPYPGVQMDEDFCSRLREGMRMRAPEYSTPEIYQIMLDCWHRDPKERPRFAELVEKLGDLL
# [5] = target: T2, Flk-1 (Mus musculus, UniProt P35918); assay: as above; assay type: biochemical; conditions: kinase inhibitory profile, Table I
# T2 construct: GST-fusion proteins of the kinase domains of several tyrosine kinase receptors; GST
# T2 sequence (P35918 832-1160 limits assumed): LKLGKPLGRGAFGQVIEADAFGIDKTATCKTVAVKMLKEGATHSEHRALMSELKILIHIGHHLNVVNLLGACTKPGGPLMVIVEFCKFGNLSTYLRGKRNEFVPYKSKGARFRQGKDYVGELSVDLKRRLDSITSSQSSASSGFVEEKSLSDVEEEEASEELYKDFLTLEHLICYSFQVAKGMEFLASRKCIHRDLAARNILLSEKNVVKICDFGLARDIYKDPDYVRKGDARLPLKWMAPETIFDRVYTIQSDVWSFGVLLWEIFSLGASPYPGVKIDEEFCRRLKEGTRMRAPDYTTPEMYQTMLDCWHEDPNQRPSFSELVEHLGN
# [6] = target: T3, Tie-2 (Homo sapiens, UniProt Q02763); assay: as above; assay type: biochemical; conditions: kinase inhibitory profile
# T3 construct: GST-fusion proteins of the kinase domains of several tyrosine kinase receptors; GST
# T3 sequence (Q02763 824-1096 limits assumed, species assumed): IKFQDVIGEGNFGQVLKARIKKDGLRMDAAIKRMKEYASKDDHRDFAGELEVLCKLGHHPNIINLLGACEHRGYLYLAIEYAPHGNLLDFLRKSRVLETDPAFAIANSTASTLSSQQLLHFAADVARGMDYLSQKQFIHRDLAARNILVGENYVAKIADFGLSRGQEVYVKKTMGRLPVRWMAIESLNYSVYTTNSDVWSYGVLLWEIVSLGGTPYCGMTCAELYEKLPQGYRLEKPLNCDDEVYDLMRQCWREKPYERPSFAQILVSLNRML
# [7] = target: T4, C-Met (Homo sapiens, UniProt P08581); assay: as above; assay type: biochemical; conditions: kinase inhibitory profile
# T4 construct: GST-fusion proteins of the kinase domains of several tyrosine kinase receptors; GST
# T4 sequence (P08581 1078-1345 limits assumed): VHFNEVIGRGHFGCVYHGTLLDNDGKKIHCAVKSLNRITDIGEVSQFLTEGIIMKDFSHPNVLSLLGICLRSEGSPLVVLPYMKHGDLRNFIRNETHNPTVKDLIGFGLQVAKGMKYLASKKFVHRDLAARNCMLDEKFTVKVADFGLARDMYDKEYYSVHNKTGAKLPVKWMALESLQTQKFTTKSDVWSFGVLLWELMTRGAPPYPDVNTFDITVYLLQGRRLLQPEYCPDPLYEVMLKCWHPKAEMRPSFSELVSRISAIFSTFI
# [8] = target: c-Kit (Homo sapiens, UniProt P10721); conditions: transfected CHO cells
# Sequence of c-Kit (P10721 26-976): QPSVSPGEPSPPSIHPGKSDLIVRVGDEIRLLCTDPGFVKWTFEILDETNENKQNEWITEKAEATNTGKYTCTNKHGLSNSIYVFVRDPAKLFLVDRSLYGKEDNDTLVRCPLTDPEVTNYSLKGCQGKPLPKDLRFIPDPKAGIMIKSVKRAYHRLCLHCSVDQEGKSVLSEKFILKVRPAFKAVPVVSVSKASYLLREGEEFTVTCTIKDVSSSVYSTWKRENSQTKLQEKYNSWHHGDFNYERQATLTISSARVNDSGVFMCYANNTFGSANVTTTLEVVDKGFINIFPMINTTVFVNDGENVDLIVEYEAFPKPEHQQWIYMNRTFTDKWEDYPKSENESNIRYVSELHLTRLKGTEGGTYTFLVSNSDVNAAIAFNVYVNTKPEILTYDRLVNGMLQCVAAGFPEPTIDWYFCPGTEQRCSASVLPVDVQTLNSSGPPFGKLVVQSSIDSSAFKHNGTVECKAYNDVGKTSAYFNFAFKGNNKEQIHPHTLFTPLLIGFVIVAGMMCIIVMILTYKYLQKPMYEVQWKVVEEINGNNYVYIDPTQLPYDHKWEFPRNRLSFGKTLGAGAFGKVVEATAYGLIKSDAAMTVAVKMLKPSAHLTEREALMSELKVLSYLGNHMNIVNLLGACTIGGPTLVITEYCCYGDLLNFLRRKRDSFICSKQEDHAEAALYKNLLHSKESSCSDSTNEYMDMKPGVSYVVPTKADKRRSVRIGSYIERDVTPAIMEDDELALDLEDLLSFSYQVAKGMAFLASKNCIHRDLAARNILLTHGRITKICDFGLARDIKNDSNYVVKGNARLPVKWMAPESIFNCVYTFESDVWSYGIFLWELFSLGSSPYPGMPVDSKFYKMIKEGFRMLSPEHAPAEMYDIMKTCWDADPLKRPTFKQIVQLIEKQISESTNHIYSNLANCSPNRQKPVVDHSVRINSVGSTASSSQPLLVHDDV
# [9] = test system: developing retinal vessels of neonatal mice; assay: drug treatment of mice during retinal vascular development; assay type: in vivo, C57/BL6J mice
# Procedure: […] of newborn C57/BL6J mice are divided into treatment and control groups which received daily subcutaneous injections of 10 mg/kg of drug or vehicle, respectively. At P7 or P10, mice are anesthetized with ether, and perfused with 1 ml of phosphate-buffered saline containing 50 mg/ml of fluorescein-labeled dextran (2×10^6 average mw, Sigma, St. Louis, Mo.).. The eyes are removed and fixed for 1 hour in 10% phosphate-buffered formalin. The cornea and […] are removed and the entire retina is carefully dissected from the eyecup, radially cut from the edge of the retina to the equator in all 4 quadrants, and flat-mounted in Aquamount. with photoreceptors facing upward.
# [10] = test system: retinal vessels in adult mice; assay: effect on retinal vessels in adult mice; assay type: in vivo, C57BL6J mice; conditions: 50 mg/kg/day, 5 days
# Procedure: Ischemic retinopathy is produced in C57/BL6J mice by the following method: Seven-day-old mice and their mothers are placed in an airtight incubator and exposed to an atmosphere of 75±3% oxygen for 5 days. Incubator temperature is maintained at 23±2° C., and oxygen is measured every 8 hours with an oxygen analyzer. After 5 days, the mice are removed from the incubator, placed in room air, and drug treatment is begun. […] Vehicle (control) or vehicle containing various concentrations of drug (volume =50 μl in neonates and 100 μl in adult mice) is placed in the stomach by gavage. After 5 days of treatment at P17, mice are sacrificed, eyes are rapidly removed and frozen in optimum cutting temperature embedding compound (OCT; Miles Diagnostics, Elkhart, IN) or fixed in 10% phosphate-buffered formalin and embedded in paraffin. Adult C57BL6J mice are also treated by gavage with drug or vehicle and after 5 days, they are sacrificed and their eyes are processed for frozen or paraffin sections. […] Slides are rinsed with 0.05M Tris-buffered saline, pH 7.6 (TBS) and incubated 2 hours at room temperature with biotinylated lectin. […] Some slides are counterstained with hematoxyfn and all are mounted with Cytoseal. […] The mean of the 13 measurements from each eye is used as a single experimental value.
# [11] = test system: mice with choroidal neovascularization; assay: laser-induced choroidal neovascularization in mice; conditions: 50 mg/kg/day by gavage, two weeks after laser
# [12] = test system: mice with ischemic retinopathy; assay: retinal neovascularization in mice with oxygen-induced ischemic retinopathy; conditions: P17 mice
# Procedure: Ischemic retinopathy is produced in C57/BL6J mice by the following method: Seven-day-old mice and their mothers are placed in an airtight incubator and exposed to an atmosphere of 75±3% oxygen for 5 days. Incubator temperature is maintained at 23±2° C., and oxygen is measured every 8 hours with an oxygen analyzer. After 5 days, the mice are removed from the incubator, placed in room air, and drug treatment is begun. […] Vehicle (control) or vehicle containing various concentrations of drug (volume =50 μl in neonates and 100 μl in adult mice) is placed in the stomach by gavage. After 5 days of treatment at P17, mice are sacrificed, eyes are rapidly removed and frozen in optimum cutting temperature embedding compound (OCT; Miles Diagnostics, Elkhart, IN) or fixed in 10% phosphate-buffered formalin and embedded in paraffin. Adult C57BL6J mice are also treated by gavage with drug or vehicle and after 5 days, they are sacrificed and their eyes are processed for frozen or paraffin sections.
# Slides are rinsed with 0.05M Tris-buffered saline, pH 7.6 (TBS) and incubated 2 hours at room temperature with biotinylated lectin. […] Some slides are counterstained with hematoxyfn and all are mounted with Cytoseal.
# The entire eye is sampled by staining sections roughly 50-60 μm apart, which provided 13 sections per eye for analysis. […] The mean of the 13 measurements from each eye is used as a single experimental value.
# [13] = target: c-erbB2 (Homo sapiens, UniProt P04626); assay: cellular autophosphorylation assay, Chinese hamster ovary cells transfected with RTK gene; conditions: transfected CHO cells
# Sequence of c-erbB2 (P04626 23-1255): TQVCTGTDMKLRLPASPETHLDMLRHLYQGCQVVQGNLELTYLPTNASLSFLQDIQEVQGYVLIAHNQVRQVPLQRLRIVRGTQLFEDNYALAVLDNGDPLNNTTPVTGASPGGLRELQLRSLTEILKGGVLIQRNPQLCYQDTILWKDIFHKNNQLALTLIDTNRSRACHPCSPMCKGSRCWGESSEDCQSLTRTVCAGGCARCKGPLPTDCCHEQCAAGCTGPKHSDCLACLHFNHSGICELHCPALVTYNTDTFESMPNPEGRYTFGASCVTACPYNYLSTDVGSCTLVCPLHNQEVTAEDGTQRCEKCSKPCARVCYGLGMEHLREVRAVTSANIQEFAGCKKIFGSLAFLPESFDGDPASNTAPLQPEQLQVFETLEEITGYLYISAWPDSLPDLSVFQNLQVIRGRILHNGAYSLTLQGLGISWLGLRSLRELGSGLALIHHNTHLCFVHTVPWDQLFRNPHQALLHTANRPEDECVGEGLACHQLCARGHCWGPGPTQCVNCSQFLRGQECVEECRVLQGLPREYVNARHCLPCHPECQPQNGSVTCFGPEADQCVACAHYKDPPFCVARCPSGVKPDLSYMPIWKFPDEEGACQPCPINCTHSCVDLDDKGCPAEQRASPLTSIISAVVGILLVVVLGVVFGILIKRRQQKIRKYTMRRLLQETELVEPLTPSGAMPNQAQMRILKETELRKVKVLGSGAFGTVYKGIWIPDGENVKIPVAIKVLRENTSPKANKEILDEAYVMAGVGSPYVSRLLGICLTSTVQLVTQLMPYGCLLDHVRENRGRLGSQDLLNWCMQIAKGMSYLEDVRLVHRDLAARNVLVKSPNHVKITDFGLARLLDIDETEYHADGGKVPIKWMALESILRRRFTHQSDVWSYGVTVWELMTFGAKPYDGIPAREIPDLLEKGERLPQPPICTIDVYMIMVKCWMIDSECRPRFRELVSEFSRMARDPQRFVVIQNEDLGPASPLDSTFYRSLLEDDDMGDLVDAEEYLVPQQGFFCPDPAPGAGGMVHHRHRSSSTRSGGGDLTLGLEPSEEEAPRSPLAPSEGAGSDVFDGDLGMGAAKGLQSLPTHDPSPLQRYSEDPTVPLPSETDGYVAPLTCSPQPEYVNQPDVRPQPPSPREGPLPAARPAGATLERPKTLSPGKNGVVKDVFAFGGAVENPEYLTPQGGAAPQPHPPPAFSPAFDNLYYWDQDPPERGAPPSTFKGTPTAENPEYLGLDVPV
# Procedure: as §1
# [14] = target: insulin receptor (Homo sapiens, UniProt P06213); assay: as above; conditions: transfected CHO cells
# Sequence of insulin receptor (P06213 28-1382, species assumed): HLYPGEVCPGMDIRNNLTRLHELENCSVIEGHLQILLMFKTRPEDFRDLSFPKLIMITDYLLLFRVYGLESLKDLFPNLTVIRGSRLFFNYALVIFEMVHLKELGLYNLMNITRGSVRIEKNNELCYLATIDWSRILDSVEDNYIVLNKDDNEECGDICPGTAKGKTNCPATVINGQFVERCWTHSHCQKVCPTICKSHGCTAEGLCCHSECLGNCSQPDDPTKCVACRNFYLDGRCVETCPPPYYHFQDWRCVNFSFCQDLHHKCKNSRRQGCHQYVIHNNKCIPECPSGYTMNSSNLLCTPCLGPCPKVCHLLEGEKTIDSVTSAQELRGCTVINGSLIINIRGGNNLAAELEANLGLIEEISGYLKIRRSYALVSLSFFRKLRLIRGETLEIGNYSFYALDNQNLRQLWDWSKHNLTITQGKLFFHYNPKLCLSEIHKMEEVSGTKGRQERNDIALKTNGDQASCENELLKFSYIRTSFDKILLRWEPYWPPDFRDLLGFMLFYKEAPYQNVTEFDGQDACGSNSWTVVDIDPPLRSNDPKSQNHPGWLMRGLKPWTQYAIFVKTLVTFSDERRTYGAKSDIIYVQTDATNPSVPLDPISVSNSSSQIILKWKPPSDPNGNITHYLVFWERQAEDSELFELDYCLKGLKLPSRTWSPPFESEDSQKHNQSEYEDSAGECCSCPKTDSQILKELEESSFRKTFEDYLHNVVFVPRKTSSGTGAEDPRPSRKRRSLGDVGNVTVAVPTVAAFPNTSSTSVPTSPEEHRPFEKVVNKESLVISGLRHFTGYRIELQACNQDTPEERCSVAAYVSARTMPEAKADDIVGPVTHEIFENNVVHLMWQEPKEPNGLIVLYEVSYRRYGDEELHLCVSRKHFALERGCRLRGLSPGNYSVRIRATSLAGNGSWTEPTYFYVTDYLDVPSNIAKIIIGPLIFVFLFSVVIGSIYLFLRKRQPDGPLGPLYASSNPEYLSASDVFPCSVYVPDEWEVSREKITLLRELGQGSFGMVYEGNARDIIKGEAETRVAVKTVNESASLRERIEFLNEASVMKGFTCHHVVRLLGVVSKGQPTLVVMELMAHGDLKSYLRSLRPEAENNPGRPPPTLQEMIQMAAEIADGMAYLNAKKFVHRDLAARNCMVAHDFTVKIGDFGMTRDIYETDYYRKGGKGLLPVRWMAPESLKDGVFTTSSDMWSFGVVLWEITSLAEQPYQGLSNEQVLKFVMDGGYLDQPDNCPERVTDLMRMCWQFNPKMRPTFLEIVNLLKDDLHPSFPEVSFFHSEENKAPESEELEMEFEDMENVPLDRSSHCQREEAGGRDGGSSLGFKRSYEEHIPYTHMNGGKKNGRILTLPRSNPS
# Procedure: as §1
smiles,measurement,setting,value
Cc1ccc(NC(=O)c2ccc(CN3CCN(C)CC3)cc2)cc1Nc1nccc(-c2cccnc2)n1 [CGP 57 148B],inhibitory activity on other RTKs including VEGF receptors,[1],little or no inhibitory activity
same,inhibition of autophosphorylation of PDGF receptors,[2],potent inhibitors
same,inhibition of autophosphorylation of VEGF receptors,[3],poor inhibitors
Cc1ccc(NC(=O)c2ccccc2)cc1Nc1nccc(-c2cccnc2)n1 [CGP 53 716],IC50,[4]; kinase inhibitory profile,> 1000 nM
same,IC50,[5],> 1000 nM
same,IC50,[6],> 1000 nM
same,IC50,[7],> 10000 nM
same,inhibitory activity on other RTKs including VEGF receptors,[1],little or no inhibitory activity
same,inhibition of autophosphorylation of PDGF receptors,[2],potent inhibitors
same,inhibition of autophosphorylation of VEGF receptors,[3],poor inhibitors
Clc1ccc(Nc2nnc(Cc3ccncc3)c3ccccc23)cc1 [CGP 79787D],inhibition of phosphorylation by kinase domain of human VEGF receptor 1,[4],good inhibitor
same,inhibition of autophosphorylation of PDGF receptors,[2],inhibits
same,inhibition of autophosphorylation of c-Kit,[8],inhibits
same,extension of retinal vessels toward the periphery at P7,"[9]; 10 mg/kg daily injections from P0, P7",only extended about half way to the periphery
same,extension of superficial capillary bed at P10,"[9]; 10 mg/kg daily injections from P0, P10",has not yet reached the edge of the retina
same,total area of endothelial staining in the retina or appearance of retinal vessels versus vehicle,[10],no difference
same,appearance of overlying retinal vessels,[11],appeared normal
same,choroidal neovascularization at site of laser-induced rupture of Bruch's membrane,[11],very little if any choroidal neovascularization
same,decrease of total endothelial staining in the retina,[12]; 0.25 mg/kg,not statistically significant
same,staining in the inner nuclear layer,[12]; 0.25 mg/kg,no identifiable decrease
same,endothelial cell staining in the retina,[12]; 2.5 mg/kg twice a day,significantly less than vehicle-treated controls
same,endothelial staining in the inner nuclear layer,[12]; 2.5 mg/kg twice a day,some decrease
same,endothelial cell staining in inner nuclear layer and outer plexiform layer (deep capillary bed),[12]; 25 mg/kg twice a day,striking absence
same,neovascularization (endothelial cells on the surface of the retina),"[12]; 25 mg/kg twice a day, gavage, 5 days",complete inhibition
same,endothelial cell staining within the retina,"[12]; 25 mg/kg twice a day, gavage, 5 days, versus vehicle",dramatic decrease
same,inhibition of autophosphorylation of VEGF receptors,[3],inhibits
same,inhibition of autophosphorylation of c-erbB2,[13],poor inhibitor
same,inhibition of autophosphorylation of insulin receptor,[14],poor inhibitor
